# Measured values taken from patent publication US10654788B2, “Method for synthesizing novel compounds derived from 3-hydroxy-cyclopentyl acetic acid” (L'OREAL, priority 2015, dated 2020).
# Tests used:
# TGM1 transcripts = assay: Expression of TGM1 transcripts in keratinocytes (RT-qPCR); format: cell-based; conditions: human epidermal keratinocytes
# Description: (§1) The influence of compound 5, in particular obtained according to the preparation process described in example 1 above, on the epidermal renewal and the barrier effect of the skin was evaluated in vitro by measuring the expression of the TGM1 and TGM3 transcripts in keratinocytes.
# (§2) Human epidermal keratinocytes were incubated for 24 hours in the presence or absence (control) of the compound to be tested. At the end of the incubation, the total RNAs were extracted and then quantified. The expression of the TGM1 and TGM3 transcripts was then measured by means of a 2-step RT-qPCR method by means of a LightCycler® 480 system and according to the SYBR® Green (Qiagen) incorporation technique. The expression of these transcripts was standardized relative to the expression of 2 housekeeping genes, RPL13A and GAPDH. The experiment was reproduced 3 times (N=3).
# (§3) The results are expressed as fold change (fc) relative to the control.
# TGM3 transcripts = assay: Expression of TGM3 transcripts in keratinocytes (RT-qPCR); format: cell-based; conditions: human epidermal keratinocytes
# Description: as §1, §2, §3
# [1] = 24 hours incubation, 100 μm, standardized to RPL13A and GAPDH, N=3
smiles,measurement,setting,value
CCCCCCCCC1C(O)CCC1CC(=O)O (stereo not shown) [Compound 5],expression of the TGM1 transcripts (class in words),TGM1 transcripts; 24 hours,moderately stimulated
same,"TGM1 transcript expression, fold change (fc) relative to the control",TGM1 transcripts; [1],1.9 fc
same,expression of the TGM3 transcripts (class in words),TGM3 transcripts; 24 hours,moderately stimulated
same,"TGM3 transcript expression, fold change (fc) relative to the control",TGM3 transcripts; [1],1.8 fc
